The test system of data set [1] is CFP-T7. Nature of the data set: Surfactant resistance of amadoriase during addition of each stabilizer (CFP-T7). The class given is biochemical, genus Coniochaeta. As to conditions: 500 mM HEPES (pH 7.0), 0.01% CTAC. The method, then: (§1) In the above surfactant resistance measuring method, various stabilizers are added and the residual activity of an amadoriase is measured in order to evaluate the effect of the stabilizers. […] The concentration sufficient to provide a buffer capacity to a solution refers to the concentration at which pH is maintained within a predetermined range (for example pH5 to 10, pH6 to 8) without having pH change due to other reagents added to the solution. A concentration insufficient to provide a buffer capacity to a solution refers to the concentration at which pH changes by addition of other reagents to the solution and pH falls outside a particular range. These concentrations vary depending upon the type and amount of other reagents to be added to a solution; however, a person skilled in the art can appropriately determine the concentration by conventional methods. Other conditions and procedure can be the same as in the above surfactant resistance measuring method.
(§2) It was studied whether or not the addition of any of various stabilizers enhanced the surfactant resistance of an amadoriase. Phosphoric acid, a tricarboxylic acid (e.g., citric acid), a dicarboxylic acid (e.g., malic acid, maleic acid, citraconic acid, malonic acid, glutaric acid, or tartaric acid), a monpcarboxylic acid (e.g., acetic acid), MES, MOPS, MOPSO, or ammonium sulfate was used as a stabilizer. As a Comparative Example, CHES was used. To prevent change in pH when adding the stabilizer, 500 mM HEPES (pH 7.0) was used as a buffer solution; CFP-T7 purified as described above was used as a sample; the final concentration of CTAC was set at 0.01%; and any of the stabilizers was further added to evaluate the surfactant resistance of CFP-T7 according to the measurement method for surfactant resistance in Example 1. Using a 500 mM HEPES (pH 7.0) buffering agent and CFP-D2 purified as described above as a sample, any of the stabilizers was further added, and the surfactant resistance of CFP-D2 was evaluated according to the measurement method for surfactant resistance in Example 1 although under more harsh surfactant treatment conditions in which the final concentration of CTAC was set at 0.08% and the treatment temperature at 37° C.

A further data set has as its system PnFX. Put plainly: Surfactant resistance of PnFX during addition of each stabilizer. The class given is biochemical, Phaeosphaeria nodorum. As to conditions: 300 mM HEPES (pH 7.0), 0.04% CTAC. The protocol: The same stabilizers as those described above were used as stabilizers; 300 mM HEPES (pH 7.0) was used as a buffering agent to prevent a change in pH when the stabilizers was each added; PnFX purified as described above was used as a sample; the final concentration of CTAC was set at 0.04%; and the surfactant resistance of PnFX was evaluated as described above.

Data set [2] deals with CFP-T7. Put plainly: Surfactant resistance of amadoriase in presence of buffering agents. The class given is biochemical, genus Coniochaeta. The conditions noted are these: for CFP-T7 Residual Activity (%): 0.01% CTAC, purified CFP-T7. The method, then: In the above surfactant resistance measuring method, the residual activity of an amadoriase is measured by using various buffers in place of a 30 mM MES/21 mM Tris buffer solution. In this manner, the contribution of the buffer to the amadoriase residual activity can be evaluated. For example, in place of the 30 mM MES/21 mM Tris buffer solution (pH 6.5), e.g., a phosphate buffer solution (pH 7.0), a citrate buffer solution (pH 6.0), a HEPES buffer solution (pH 7.0) or an ACES buffer solution (pH 7.0) can be used. Other conditions and procedure can be the same as in the above surfactant resistance measuring method.
It was studied whether the surfactant resistance of an amadoriase is enhanced or not when a buffering agent other than a 30 mM MES/21 mM Tris buffering agent (pH 6.5) was used. Using CFP-T7 purified as described above as a sample, the final concentration of CTAC was set at 0.01% to evaluate the surfactant resistance of CFP-T7 according to the measurement method for surfactant resistance in Example 1 in the presence of any of various buffering agents, specifically a phosphate buffering agent containing phosphoric acid and potassium phosphate (pH 7.0), a citrate buffering agent containing citric acid and sodium citrate (pH 6.0), an MES buffering agent containing MES and it sodium salt (pH 7.0), an HEPES buffering agent containing HEPES and its sodium salt (pH 7.0), and an ACES buffering agent containing ACES and its sodium salt (pH 7.0), in place of the 30 mM MES/21 mM Tris buffering agent (pH 6.5).

In a further data set the test system is CFP-D2. Nature of the data set: Surfactant resistance of amadoriase during addition of each stabilizer (CFP-D2). The class given is biochemical, genus Coniochaeta. As to conditions: 500 mM HEPES (pH 7.0), 0.08% CTAC, 37°C. The protocol:
as §1
as §2, with “To prevent change in pH when adding the stabilizer, 500 mM HEPES (pH 7.0) was used as a buffer solution; CFP-T7 purified as described above was used as a sample; the final concentration of CTAC was set at 0.01%; and any of the stabilizers was further added to evaluate the surfactant resistance of CFP-T7 according to the measurement method for surfactant resistance in Example 1.” left out

The nature of data set [3]: Measurement of fructosyl peptide sample (αFVH) under mixing of CTAC, change in absorbance at 751 nm. The data set is classed as biochemical. The conditions noted are these: for Amount of Change in Absorbance at Wavelength of 751 nm under Mixing of Each Concentration of CTAC: as in Example 5, Table 7. The protocol:
The purified enzyme of CFP-T7 and CFP-D7 obtained in Example 3-2 was used to measure a sample as shown below. The activity values of CFP-T7 and CFP-D7 were determined using (reagent 1) adjusted to pH 7.0 with αFVH at a final concentration of 5 mM as a substrate according to the method for measuring amadoriase activity.
(Reagent 4) αFVH (125 mg) was dissolved in ion-exchanged water, the volume of the solution was fixed to 10 ml, and thereby a 30 mM substrate solution was obtained. In addition, the resultant was diluted by 1/714 with a CTAC solution to provide a 42 μM αFVH/0% to 0.2% CTAC solution.
(Reagent 6) (50 μl) was added to a mixed solution of 135 μl of (reagent 5) warmed at 37° C. for 5 minutes in advance and 25 μl of the sample prepared in (11) above to start reaction, and absorbance at a wavelength of 751 nm after reaction at 37° C. for 5 minutes was measured using an automated analyzer, Bio Majesty JCA-BM1650 (from JEOL Ltd.). Absorbance (reagent blank) at a wavelength of 751 nm measured by a similar operation for (reagent 4) prepared using ion-exchanged water in place of the substrate solution was used as a control to calculate the amount of change in absorbance (difference) when each sample was measured, using the following equation. The final concentration of a colorimetric substrate, DA-64, was 0.15 mM; the final concentration of αFVH in the case of the presence of a substrate was 5 μM; and the length (optical path) of the cell used for absorbance measurement was 1 cm. Amount of change in absorbance=ΔAes−Ae0
The amount of change in absorbance when αFVH/0% to 0.2% CTAC were used as samples was calculated.
The purified preparations of amadoriases obtained as described above were used as samples to measure αFVH under the mixing of CTAC using PnFX and NvFX as in Example 5.

The mark [4] stands for this setting: Buffer Solution 50 mM, pH 7.0 (citrate pH 6.0).
The mark [5] stands for this setting: Buffer Solution 100 mM, pH 7.0 (citrate pH 6.0).

Data on six molecules can be found in patent US11549134B2, “Modified amadoriase and method for producing the same, agent for improving surfactant resistance of amadoriase and composition for measuring HbA1c using the same” (Kikkoman Corporation, priority 2013, dated 2023).

As for `O=C(O)CC(O)(CC(=O)O)C(=O)O` [Citrate, citric acid], the “CFP-T7 Residual Activity (%)” value was found to be 12.2% with CFP-T7 [1] (Stabilizer 0.2 mM, Table 9-1); 30.7% with CFP-T7 [1] (Stabilizer 0.5 mM, Table 9-1); 87.6% with CFP-T7 [1] (Stabilizer 2 mM, Table 9-1); 104.1% in the data set with CFP-T7 [2] (Buffer Solution 10 mM, pH 7.0 (citrate pH 6.0)); 108.2% in the data set with CFP-T7 [2] (setting [4]); 105.7% in the data set on CFP-T7 [2] (setting [5]). Besides, the “PnFX Residual Activity (%)” value in the data set on PnFX (Stabilizer 0.5 mM) is 47.3%. Besides, the “amadoriase stabilizing effect of the buffer (in words)” value in the data set with CFP-T7 [2] (CFP-T7 in the presence of surfactant) is on record as “inactivation due to the surfactant did not occur even at 10 mM”.

Take `O=S(=O)(O)CCN1CCOCC1` [MES, 2-(N-morpholino)ethanesulfonic acid]: the “CFP-T7 Residual Activity (%)” value was determined as 19.5% with CFP-T7 [1] (Stabilizer 10 mM, Table 9-1); 54.1% with CFP-T7 [1] (Stabilizer 20 mM, Table 9-1); 103.0% in the data set on CFP-T7 [1] (Stabilizer 40 mM, Table 9-1); 14.3% with CFP-T7 [2] (setting [4]); 17.6% in the data set on CFP-T7 [2] (setting [5]); 62.9% in the data set on CFP-T7 [2] (Buffer Solution 150 mM, pH 7.0). For the same molecule, the “CFP-T7 Residual Activity (%)” value with CFP-T7 [2] (Buffer Solution 300 mM, pH 7.0) worked out at 95.8%. For the same molecule, the “PnFX Residual Activity (%)” value in the data set with PnFX (Stabilizer 20 mM) is 89.6%.

For `O=S(=O)(O)CCCN1CCOCC1` [MOPS, 3-(N-morpholino)propanesulfonic acid], the “CFP-T7 Residual Activity (%)” value is 6.5% in the data set with CFP-T7 [1] (Stabilizer 10 mM, Table 9-2) and 20.6% with CFP-T7 [1] (Stabilizer 20 mM, Table 9-2). Besides, the “CFP-D2 Residual Activity (%)” value in the data set with CFP-D2 (Stabilizer 20 mM) is given as 42.4%.

Regarding `O=C(O)CC(O)C(=O)O` (stereo not drawn) [Malate, malic acid], the “CFP-T7 Residual Activity (%)” value with CFP-T7 [1] (Stabilizer 2 mM, Table 9-1) is recorded as 12.6%; in the data set with CFP-T7 [1] (Stabilizer 5 mM, Table 9-1), 35.4%; in the data set with CFP-T7 [1] (Stabilizer 10 mM, Table 9-1), 74.3%. For the same molecule, the “PnFX Residual Activity (%)” value in the data set on PnFX (Stabilizer 5 mM) is given as 60.4%. In addition, the “CFP-D2 Residual Activity (%)” value in the data set on CFP-D2 (Stabilizer 5 mM) stood at 59.2%.

For `O=P(O)(O)O` [Phosphate, phosphoric acid], the “CFP-T7 Residual Activity (%)” value with CFP-T7 [1] (Stabilizer 2 mM, Table 9-1) is listed as 28.1%; in the data set on CFP-T7 [1] (Stabilizer 5 mM, Table 9-1) it was 61.6%; with CFP-T7 [1] (Stabilizer 10 mM, Table 9-1), 76.8%; in the data set on CFP-T7 [1] (Stabilizer 20 mM, Table 9-1) it was 98.6%; with CFP-T7 [1] (Stabilizer 50 mM, Table 9-1), 100.0%; in the data set on CFP-T7 [2] (Buffer Solution 20 mM, pH 7.0 (citrate pH 6.0)), 15.1%. Besides, the “CFP-T7 Residual Activity (%)” value in the data set with CFP-T7 [2] (setting [4]) worked out at 27.2%; in the data set with CFP-T7 [2] (setting [5]), 68.3%; in the data set with CFP-T7 [2] (Buffer Solution 150 mM, pH 7.0), 88.5%; with CFP-T7 [2] (Buffer Solution 300 mM, pH 7.0), 98.4%. In the data set on PnFX (Stabilizer 5 mM), the “PnFX Residual Activity (%)” value is listed as 37.5%. Moreover, in the data set on CFP-D2 (Stabilizer 5 mM), the “CFP-D2 Residual Activity (%)” value worked out at 72.8%.

B1: PnFX: fructosyl peptide oxidase derived from Phaeosphaeria nodorum, SEQ ID NO: 40 (protein, listed as Phaeosphaeria nodorum)
chain: MAPSRANTSVIVVGGGGTIGSSTALHLVRSGYTPSNVTVLDAYPIPSSQSAGNDLNKIMGVSLRNPVDLQLALEARQMWNEDELFKKFFHNTGRLDCAHGEKDIADLKSGYQALVDAGLDATNEWLDSEDEILKRMPLLSRDQIKGWKAIFSKDGGWLAAAKAINAVGEYLRDQGVRFGFYGAGSFKAPLLAEGVCIGVETVDGTRYYADKVVLAAGAWSPTLVELHEQCVSKAWVYGHIQLTPEEAARYKNSPVVYNGDVGFFFEPNEHGVIKVCDEFPGFTRFKMHQPFGAKAPKRISVPRSHAKHPTDTIPDASDVSIRRAIATFMPQFKNKKMFNQAMCWCTDTADAALLICEHPEWKNFVLATGDSGHSFKLLPNIGKHVVELLEGTLADDLAHAWRWRPGSGDALKSRRSAPAKDLADMPGWNHDKPRANL
As to B1, the “measurement of αFVH under the mixing of CTAC (in words)” value in data set [3] is “capable of measuring αFVH as a substrate under the mixing of CTAC at a concentration as high as 0.02% or more”. Further, the “Amount of Change in Absorbance at Wavelength of 751 nm under Mixing of Each Concentration of CTAC” value in data set [3] (Mixing of CTAC 0%) is given as 0.173; in data set [3] (Mixing of CTAC 0.01%), 0.115; in data set [3] (Mixing of CTAC 0.02%) it was 0.084; in data set [3] (Mixing of CTAC 0.04%) it was 0.026; in data set [3] (Mixing of CTAC 0.06%), 0.008; in data set [3] (Mixing of CTAC 0.1%) it was 0.003. In data set [3] (Mixing of CTAC 0.2%), the “Amount of Change in Absorbance at Wavelength of 751 nm under Mixing of Each Concentration of CTAC” value worked out at 0.001. Also, the “PnFX Residual Activity (%)” value in the data set on PnFX (Stabilizer None) worked out at 27.9%.
